For the test, the system named is C57BL/6 mice, intracerebral ependymoblastoma, median survival T/C. Put plainly: NCI In Vivo Anticancer Drug Screen. Data for tumor model Ependymoblastoma (intracerebral) in C57BL/6 mice. The conditions noted are these: endpoint: median survival time, higher = longer survival. On the procedure: The antitumor activity of compounds was measured in mice bearing transplantable tumors. Survival or tumor size were measured and the results are expressed as the measurement made in the treated group (T) divided by the measurement made in the vehicle treated control group (C). The tumor model used in this assay is Ependymoblastoma (intracerebral) in C57BL/6 mice

“And” between values parts separate entries of the source, which are not always exact repeats. Equal values may be shown once. Toxic doses and inconclusive results are not listed.

Consider `O=P1(NCCCl)OCCCN1CCCl` (centres undefined), for which the T/C was 122 % of control (dose: 6.25 mg/kg/injection, schedule: Q01DX005 (ip), vehicle: saline); 110 % of control (dose: 12.5 mg/kg/injection, schedule: Q01DX005 (ip), vehicle: saline); 114 % of control (dose: 25.0 mg/kg/injection, schedule: Q01DX005 (ip), vehicle: saline); 92 % of control and 117 % of control (dose: 25.0 mg/kg/injection, schedule: Q01DX005 (ip), vehicle: water); 96 % of control (dose: 50.0 mg/kg/injection, schedule: Q01DX001 (ip), vehicle: water); 90 % of control (dose: 50.0 mg/kg/injection, schedule: Q01DX005 (ip), vehicle: water). Further, the T/C was 106 % of control (dose: 100.0 mg/kg/injection, schedule: Q01DX001 (ip), vehicle: water); 106 % of control and 123 % of control (dose: 100.0 mg/kg/injection, schedule: Q01DX005 (ip), vehicle: water); 119 % of control (dose: 200.0 mg/kg/injection, schedule: Q01DX001 (ip), vehicle: water); 116 % of control (dose: 200.0 mg/kg/injection, schedule: Q01DX005 (ip), vehicle: water).

As for `COC(=O)[C@@]12OC[C@]34[C@H]([C@@H](O)[C@@H]1O)[C@@]1(C)CC(=O)C(O)=C(C)[C@@H]1C[C@H]3OC(=O)[C@H](OC(=O)/C=C(\C)C(C)C)[C@@H]24`, the T/C by setting is: (dose: 0.03 mg/kg/injection, schedule: Q01DX005 (ip), vehicle: Klucel (hydroxypropylcellulose) (HPC)) 92 % of control and 110 % of control; (dose: 0.06 mg/kg/injection, schedule: Q01DX005 (ip), vehicle: Klucel (hydroxypropylcellulose) (HPC)) 109 % of control and 116 % of control; (dose: 0.12 mg/kg/injection, schedule: Q01DX005 (ip), vehicle: Klucel (hydroxypropylcellulose) (HPC)) 101 % of control and 107 % of control; (dose: 0.25 mg/kg/injection, schedule: Q01DX005 (ip), vehicle: Klucel (hydroxypropylcellulose) (HPC)) 104 % of control and 109 % of control; (dose: 0.5 mg/kg/injection, schedule: Q01DX005 (ip), vehicle: Klucel (hydroxypropylcellulose) (HPC)) 93 % of control and 117 % of control; (dose: 1.0 mg/kg/injection, schedule: Q01DX005 (ip), vehicle: Klucel (hydroxypropylcellulose) (HPC)) 95 % of control. Besides, the T/C is 86 % of control (dose: 31.2 micrograms/kg/injection, schedule: Q01DX005 (ip), vehicle: saline + alcohol); 99 % of control (dose: 62.5 micrograms/kg/injection, schedule: Q01DX005 (ip), vehicle: saline + alcohol); 94 % of control (dose: 125.0 micrograms/kg/injection, schedule: Q01DX005 (ip), vehicle: saline + alcohol); 108 % of control (dose: 250.0 micrograms/kg/injection, schedule: Q01DX005 (ip), vehicle: saline + alcohol); 87 % of control (dose: 500.0 micrograms/kg/injection, schedule: Q01DX005 (ip), vehicle: saline + alcohol); 99 % of control (dose: 1000.0 micrograms/kg/injection, schedule: Q01DX005 (ip), vehicle: saline + alcohol).

Regarding `O=NN(CCCl)C(=O)NCCCl`, the T/C reads like this: (dose: 0.12 mg/kg/injection, schedule: Q03HX032 (ip), vehicle: saline) 113 % of control and 291 % of control; (dose: 0.25 mg/kg/injection, schedule: Q03HX032 (ip), vehicle: saline) 291 % of control; (dose: 0.5 mg/kg/injection, schedule: Q03HX008 (ip), vehicle: saline) 110 % of control; (dose: 0.5 mg/kg/injection, schedule: Q03HX032 (ip), vehicle: saline) 169 % of control; (dose: 1.0 mg/kg/injection, schedule: Q01DX005 (ip), vehicle: saline + alcohol) 109 % of control; (dose: 2.0 mg/kg/injection, schedule: Q01DX001 (ip), vehicle: Klucel (hydroxypropylcellulose) (HPC)) 95 % of control and 100 % of control and 111 % of control. The T/C was 113 % of control (dose: 2.0 mg/kg/injection, schedule: Q01DX005 (ip), vehicle: saline with Tween-80); 103 % of control and 251 % of control (dose: 2.0 mg/kg/injection, schedule: Q03HX008 (ip), vehicle: saline); 151 % of control and 179 % of control (dose: 2.0 mg/kg/injection, schedule: Q03HX032 (ip), vehicle: saline); 101 % of control and 106 % of control and 120 % of control (dose: 4.0 mg/kg/injection, schedule: Q01DX001 (ip), vehicle: Klucel (hydroxypropylcellulose) (HPC)); 97 % of control and 108 % of control (dose: 4.0 mg/kg/injection, schedule: Q01DX001 (oral), vehicle: saline with Tween-80); 106 % of control (dose: 4.0 mg/kg/injection, schedule: Q01DX005 (ip), vehicle: alcohol). The T/C runs as follows: (dose: 4.0 mg/kg/injection, schedule: Q03HX008 (ip), vehicle: saline) 178 % of control and 327 % of control; (dose: 4.0 mg/kg/injection, schedule: Q## X006 (ip), vehicle: saline with Tween-80) 159 % of control; (dose: 8.0 mg/kg/injection, schedule: Q01DX001 (ip), vehicle: Klucel (hydroxypropylcellulose) (HPC)) 115 % of control; (dose: 8.0 mg/kg/injection, schedule: Q01DX001 (oral), vehicle: saline with Tween-80) 95 % of control and 102 % of control and 122 % of control; (dose: 8.0 mg/kg/injection, schedule: Q01DX005 (ip), vehicle: saline + alcohol) 361 % of control; (dose: 8.0 mg/kg/injection, schedule: Q03HX008 (ip), vehicle: saline) 96 % of control and 98 % of control. For the same compound, the T/C runs as follows: (dose: 8.0 mg/kg/injection, schedule: Q## X006 (ip), vehicle: saline with Tween-80) 219 % of control; (dose: 10.0 mg/kg/injection, schedule: Q01DX001 (ip), vehicle: other) 124 % of control; (dose: 15.0 mg/kg/injection, schedule: Q01DX001 (ip), vehicle: saline with Tween-80) 176 % of control; (dose: 16.0 mg/kg/injection, schedule: Q01DX001 (ip), vehicle: Klucel (hydroxypropylcellulose) (HPC)) 150 % of control and 228 % of control; (dose: 16.0 mg/kg/injection, schedule: Q01DX001 (ip), vehicle: other) 124 % of control; (dose: 16.0 mg/kg/injection, schedule: Q01DX001 (oral), vehicle: saline with Tween-80) 158 % of control. In addition, the T/C (dose: 16.0 mg/kg/injection, schedule: Q01DX005 (ip), vehicle: saline + alcohol) is 96 % of control; the T/C (dose: 16.0 mg/kg/injection, schedule: Q08DX002 (ip), vehicle: saline) was 207 % of control and 291 % of control; the T/C (dose: 20.0 mg/kg/injection, schedule: Q01DX001 (ip), vehicle: other) was 164 % of control; the T/C (dose: 20.0 mg/kg/injection, schedule: Q01DX001 (oral), vehicle: saline with Tween-80) was 195 % of control; the T/C (dose: 30.0 mg/kg/injection, schedule: Q01DX001 (ip), vehicle: saline with Tween-80) was 212 % of control; the T/C (dose: 32.0 mg/kg/injection, schedule: Q01DX001 (ip), vehicle: Klucel (hydroxypropylcellulose) (HPC)) was 101 % of control and 217 % of control and 231 % of control. Besides, the T/C (dose: 32.0 mg/kg/injection, schedule: Q01DX001 (ip), vehicle: other) is 219 % of control; the T/C (dose: 32.0 mg/kg/injection, schedule: Q01DX001 (oral), vehicle: saline with Tween-80) is 108 % of control; the T/C (dose: 32.0 mg/kg/injection, schedule: Q04DX004 (ip), vehicle: saline) is 111 % of control; the T/C (dose: 40.0 mg/kg/injection, schedule: Q01DX001 (ip), vehicle: other) is 196 % of control; the T/C (dose: 64.0 mg/kg/injection, schedule: Q01DX001 (ip), vehicle: saline with Tween-80) is 94 % of control; the T/C (dose: 64.0 mg/kg/injection, schedule: Q01DX001 (oral), vehicle: saline with Tween-80) was 94 % of control. Further, the T/C runs as follows: (dose: 64.0 mg/kg/injection, schedule: Q04DX004 (ip), vehicle: saline) 100 % of control; (dose: 64.0 mg/kg/injection, schedule: Q08DX002 (ip), vehicle: saline) 97 % of control; (dose: 128.0 mg/kg/injection, schedule: Q01DX001 (ip), vehicle: saline with Tween-80) 97 % of control; (dose: 128.0 mg/kg/injection, schedule: Q01DX001 (oral), vehicle: saline with Tween-80) 92 % of control; (dose: 256.0 mg/kg/injection, schedule: Q01DX001 (ip), vehicle: saline with Tween-80) 88 % of control; (dose: 256.0 mg/kg/injection, schedule: Q01DX001 (oral), vehicle: saline with Tween-80) 88 % of control.

The values above are taken from PubChem BioAssay AID222 (DTP/NCI, 2004).
